Measured values: patent US20240317691A1, “Compounds for Modulating Epithelial 15-(S)-Lipoxygenase-2 and Methods of Use for Same” (The Regents of the University of California, priority 2021, published 2024)
“And” between values parts separate entries of the source, which are not always exact repeats. Equal entries are not always repeated. Where two headings read alike, the source gives them in different places.

Experiments:
[1] = biological target: T1, h15-LOX-2 (Homo sapiens (Human), UniProt O15296); test: Lipoxygenase UV-Vis-based IC50 assay, h15-LOX-2; conditions: for inhibition at 20 µM: read-out: % Inhibition at 20 μM; for potency against h15-LOX-2, SAR statement: compared with original hits
T1 sequence (O15296 whole entry, the tested form may be a part): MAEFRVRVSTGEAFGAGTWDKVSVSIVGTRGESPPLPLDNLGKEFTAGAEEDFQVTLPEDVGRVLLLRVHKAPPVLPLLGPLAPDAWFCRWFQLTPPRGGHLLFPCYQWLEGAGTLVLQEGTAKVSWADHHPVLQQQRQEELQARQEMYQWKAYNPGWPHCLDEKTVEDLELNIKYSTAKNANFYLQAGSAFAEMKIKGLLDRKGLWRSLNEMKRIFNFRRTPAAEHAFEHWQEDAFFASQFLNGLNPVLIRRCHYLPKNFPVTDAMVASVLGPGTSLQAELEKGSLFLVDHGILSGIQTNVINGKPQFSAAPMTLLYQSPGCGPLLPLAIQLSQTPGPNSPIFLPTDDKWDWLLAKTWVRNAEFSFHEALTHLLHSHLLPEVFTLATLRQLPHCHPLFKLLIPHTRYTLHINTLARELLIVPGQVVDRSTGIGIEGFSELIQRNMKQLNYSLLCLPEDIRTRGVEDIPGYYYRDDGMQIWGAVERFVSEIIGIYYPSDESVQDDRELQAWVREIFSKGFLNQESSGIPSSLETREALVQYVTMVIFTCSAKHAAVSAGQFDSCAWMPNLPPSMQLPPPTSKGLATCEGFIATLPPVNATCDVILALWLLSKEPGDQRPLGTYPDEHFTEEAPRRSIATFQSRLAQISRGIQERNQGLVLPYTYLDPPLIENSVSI
Protocol: (§3) The full IC50 experiments were done with at least five different inhibitor concentrations. All reaction mixtures were 2 mL in volume and constantly stirred using a magnetic stir bar at room temperature (23° C.) with the appropriate amount of LOX isozyme [h5-LOX (˜200 nM); h12-LOX (˜50 nM); h15-LOX-1 (˜60 nM); h15-LOX-2 (˜200 nM)]. […] Reactions with h12-LOX were carried out in 25 mM HEPES (pH 8.0) 0.01% Triton X-100 and 10 μM AA. Reactions with the crude, ammonium sulfate precipitated h5-LOX were carried out in 25 mM HEPES (pH 7.3), 0.3 mM CaCl2), 0.1 mM EDTA, 0.2 mM ATP, 0.01% Triton X100 and 10 μM AA. Reactions with h15-LOX-1 and h15-LOX-2 were carried out in 25 mM HEPES buffer (pH 7.5), 0.01% Triton X-100 and 10 μM AA. […] IC50 values were obtained by determining the percent inhibition at various inhibitor concentrations and plotting against inhibitor concentration, followed by a hyperbolic saturation curve fit. The percent inhibition was calculated by comparing the enzymatic rate of the control (DMSO) to the enzymatic rate with the respective inhibitor present. The experiments used for generating the saturation curves were performed in duplicate or triplicate, depending on the quality of the data.

[2] = biological target: ovine COX-1 (Ovis aries (Sheep), UniProt P05979); test: Cyclooxygenase selectivity assay, COX-1; assay type: biochemical; conditions: estimated at 25 μM inhibitor concentration, 100 μM AA
Chain of ovine COX-1 (P05979 25-600): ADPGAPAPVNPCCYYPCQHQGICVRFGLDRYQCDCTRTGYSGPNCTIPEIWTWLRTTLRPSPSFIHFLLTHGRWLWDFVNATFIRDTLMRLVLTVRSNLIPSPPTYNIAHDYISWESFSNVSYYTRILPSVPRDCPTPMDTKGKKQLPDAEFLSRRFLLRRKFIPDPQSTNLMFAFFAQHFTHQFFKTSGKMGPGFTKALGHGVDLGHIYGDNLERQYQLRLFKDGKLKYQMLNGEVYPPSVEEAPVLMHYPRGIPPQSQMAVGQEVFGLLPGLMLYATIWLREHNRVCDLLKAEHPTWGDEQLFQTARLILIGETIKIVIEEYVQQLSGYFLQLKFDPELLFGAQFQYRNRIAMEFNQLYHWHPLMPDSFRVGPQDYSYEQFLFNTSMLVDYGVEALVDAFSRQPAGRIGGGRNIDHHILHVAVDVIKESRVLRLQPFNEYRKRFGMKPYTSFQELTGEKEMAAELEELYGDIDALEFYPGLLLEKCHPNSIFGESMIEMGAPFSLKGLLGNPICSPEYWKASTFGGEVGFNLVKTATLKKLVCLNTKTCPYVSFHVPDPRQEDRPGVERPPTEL
Protocol: (§1) Cyclooxygenase selectivity assay was performed as previously described.^24 Approximately 3 μg of either ovine COX-1 (COX-1) or human recombinant COX-2 (COX-2) (Cayman Chemical) were added to buffer containing 0.1 M Tris-HCl buffer (pH 8.0), 5 mM EDTA, 2 mM phenol, and 1 μM hemin at 37° C. […] The reaction was then initiated by adding approximately 100 μM AA in the reaction cell, as indicated in the enzymatic protocol (Cayman Chemicals). A Hansatech DWI oxygen electrode was utilized for data collection and the consumption of oxygen was recorded.
(§2) Indomethacin and the vehicle of inhibitor (DMSO) were the positive and negative controls, respectively. The percent inhibition of the enzyme was calculated by comparing the rates of O2 consumption for experimental samples (with inhibitor) to the rates of control samples (with DMSO).

[3] = biological target: human recombinant COX-2 (Homo sapiens (Human), UniProt P35354); test: Cyclooxygenase selectivity assay, COX-2; assay type: biochemical; conditions: estimated at 25 μM inhibitor concentration, 100 μM AA
Chain of human recombinant COX-2 (P35354 18-604): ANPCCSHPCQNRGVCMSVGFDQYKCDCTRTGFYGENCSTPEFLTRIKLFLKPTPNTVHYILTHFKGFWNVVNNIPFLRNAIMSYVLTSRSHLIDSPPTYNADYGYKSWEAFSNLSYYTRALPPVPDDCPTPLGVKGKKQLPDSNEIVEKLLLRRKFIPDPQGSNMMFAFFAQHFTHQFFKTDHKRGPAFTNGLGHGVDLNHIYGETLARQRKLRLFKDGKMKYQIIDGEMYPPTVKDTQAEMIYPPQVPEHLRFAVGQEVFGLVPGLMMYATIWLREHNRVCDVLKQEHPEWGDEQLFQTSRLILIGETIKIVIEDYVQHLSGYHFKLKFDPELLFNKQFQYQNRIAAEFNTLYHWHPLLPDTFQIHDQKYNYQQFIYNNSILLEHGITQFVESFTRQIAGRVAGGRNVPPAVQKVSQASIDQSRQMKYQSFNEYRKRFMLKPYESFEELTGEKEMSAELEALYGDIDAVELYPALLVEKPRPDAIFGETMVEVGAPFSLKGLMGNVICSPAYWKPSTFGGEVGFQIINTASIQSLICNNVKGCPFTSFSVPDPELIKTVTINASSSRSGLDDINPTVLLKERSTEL
Protocol: as §1, §2

[4] = biological target: T1, h15-LOX-2; test: Pseudo-peroxidase activity assay (redox); assay type: biochemical; conditions: 20 μM inhibitor, degradation of 13-HpODE at 234 nm; more than 25% degradation indicates redox activity
Protocol: 13-HpODE was used as the oxidant and BWb70c as the positive control. […] The reaction mixtures were constantly stirred at 23° C. […] The negative controls used were: enzyme alone with the product, enzyme alone with inhibitor, as well as inhibitor alone with the product. These formed a baseline for the assay, reflecting non-pseudo-peroxidase dependent hydroperoxide product decomposition. To rule out the auto-inactivation of the enzyme from pseudo-peroxidase cycling, the h15-LOX-2 residual activity was determined by the addition of 20 μM AA at the end of each reaction.

[5] = biological target: T1, h15-LOX-2; test: Steady-state inhibition kinetics of h15-LOX-2; assay type: biochemical
Protocol: Reactions were initiated by adding h15-LOX-2 to a constantly stirring 2 mL reaction mixture containing 0.7 μM-20 μM AA in 25 mM HEPES buffer (pH 7.5), in the presence of 0.01% Triton X-100. Kinetic data were obtained by recording initial enzymatic rates, at varied inhibitor concentrations, and subsequently fitting the data to the Henri-Michaelis-Menten equation using KaleidaGraph (Synergy) to determine Vmax (μmol/min) and Km (μM). The primary data were then plotted in Dixon format using Microsoft Excel by graphing 1/v vs. [I] μM at the chosen substrate concentrations. From the Dixon plots, the slope at each substrate concentration was extracted and plotted against 1/[S] μM to produce the Dixon replots. The Kic equilibrium constant of dissociation was calculated by dividing Km/Vmax by the slope of the replot. To obtain Kiu, 1/Vmax was divided by the y-intercept of the replot. Kic and Kiu are defined as the equilibrium constant of dissociation from the catalytic and secondary sites, respectively.

[6] = biological target: T1, h15-LOX-2; test: Inhibitors as substrates of h15-LOX-2 (UV-Vis and RP-HPLC); assay type: biochemical; conditions: 20 μM inhibitor, absence of AA
Protocol: All buffer conditions and the determination of each rate are identical to the UV-Vis assay as described above. 20 μM of each inhibitor was reacted with h15-LOX-2 in 2 mL reaction mixtures in the absence of AA. Controls included DMSO (vehicle), 10 μM AA, and enzyme. All reactions were conducted on a Perkin Elmer Lambda 40 UV/Vis spectrophotometer. […] Each reaction mixture was subsequently extracted and analyzed via RP-HPLC using a Higgins HAIsiL analytical column. […] Retention times and absorbance spectra of each of the reactions were compared to spectra of the controls.

[7] = biological target: h15-LOX-2 expressed in HEK293T cells (Homo sapiens (Human), UniProt O15296); test: Inhibition of h15-LOX-2 in HEK293T cells (15-HETE production); assay type: cell-based; conditions: h15-LOX-2/HEK293T cells, exogenous AA, triplicate
Chain of h15-LOX-2 expressed in HEK293T cells (O15296 whole entry): as the sequence (O15296 whole entry, the tested form may be a part) above
Protocol: HEK293T cells over-expressing h15-LOX-2 were grown in MEM (Gibco) with 10% FBS (Gibco), 2 mM glutamine (Sigma), 100U/mL of penicillin/streptomycin (Gibco) and 640 μg/ml G418 sulfate (Fisher) as a selection agent. Cells were harvested at 90% confluence with trypsin-EDTA (Gibco) and washed once with MEM with 10% FBS. Cells were then washed with 0.1% glucose (Fisher) in PBS (Gibco). Cells were then diluted in 0.1% glucose in PBS to a concentration of 1 million cells/mL. Cells were treated with DMSO (0.2%) or inhibitor in DMSO and incubated at 37° C. for 20 min. Cells were then stimulated with 100 uM CaCl2) (Sigma), 5 μM Ca Ionophore A23187 (Sigma), and 1 μM arachidonic acid (NuCheck) for 10 min at 37° C. Cells were then acidified to 40 uM HCl and snap-frozen in liquid nitrogen.

[8] = biological target: T1, h15-LOX-2; test: Hydrogen/deuterium exchange mass spectrometry of h15-LOX-2; conditions: 20 μM inhibitor
Protocol: Samples were incubated randomly at 10 time points (0, 10, 20, 45, 60, 180, 600, 1800, 3600, and 7200 s) at 25° C. using a water bath. For each given temperature and mutant, the time points (samples) were collected over the course of three to four days and randomized to reduce systematic error. Each sample (from a unique time point) was prepared and processed once. For the samples containing inhibitors, the inhibitor was added (20 μM final concentration) to the protein stock solution (at least one minute) prior to D2O addition. The specific inhibitor was also added to the D2O buffer at a final concentration of 20 μM prior to the exchange experiment.
Procedures from this point were conducted near 4° C. Prior to pepsin digestion, guanidine HCl (in citric acid, pH 2.4) was mixed with the samples to a final concentration of ca. 0.5 M. This solution contained DTT to the final concentration of 5 mM. […]
Deuterated, pepsin-digested samples of 15-LOX-2 were analyzed using an Agilent 1200 LC (Santa Clara, CA) that was connected in-line with the LTQ Orbitrap XL mass spectrometer (Thermo). Mass spectral data acquired for HDX measurements were analyzed using the software, HDX WorkBench. The percent deuterium incorporation was calculated for each of these peptides, taking into account the number of amide linkages (excluding proline residues) and the calculated number of deuterons incorporated. […]

[9] = biological target: h5-LOX (Homo sapiens (Human), UniProt P09917); test: Lipoxygenase UV-Vis-based assay, h5-LOX selectivity
Chain of h5-LOX (P09917 whole entry): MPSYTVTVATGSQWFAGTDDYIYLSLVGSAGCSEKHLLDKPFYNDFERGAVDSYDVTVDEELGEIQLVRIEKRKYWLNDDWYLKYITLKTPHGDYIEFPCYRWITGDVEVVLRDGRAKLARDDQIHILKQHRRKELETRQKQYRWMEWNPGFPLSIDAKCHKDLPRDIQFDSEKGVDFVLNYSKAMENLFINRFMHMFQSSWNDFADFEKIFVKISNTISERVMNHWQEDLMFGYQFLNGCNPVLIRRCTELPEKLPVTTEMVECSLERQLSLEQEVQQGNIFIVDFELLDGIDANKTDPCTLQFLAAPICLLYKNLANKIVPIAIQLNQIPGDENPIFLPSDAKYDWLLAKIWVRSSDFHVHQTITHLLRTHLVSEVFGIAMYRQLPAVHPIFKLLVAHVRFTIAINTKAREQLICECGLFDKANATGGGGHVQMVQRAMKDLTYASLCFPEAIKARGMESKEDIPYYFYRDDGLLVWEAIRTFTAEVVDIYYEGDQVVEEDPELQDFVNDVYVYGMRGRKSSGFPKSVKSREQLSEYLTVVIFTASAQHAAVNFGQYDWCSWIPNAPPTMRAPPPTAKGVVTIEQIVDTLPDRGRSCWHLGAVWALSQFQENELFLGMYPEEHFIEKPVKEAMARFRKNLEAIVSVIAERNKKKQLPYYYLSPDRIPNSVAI
Protocol: as §3

[10] = biological target: h12-LOX (Homo sapiens (Human), UniProt P18054); test: Lipoxygenase UV-Vis-based assay, h12-LOX selectivity
Chain of h12-LOX (P18054 whole entry): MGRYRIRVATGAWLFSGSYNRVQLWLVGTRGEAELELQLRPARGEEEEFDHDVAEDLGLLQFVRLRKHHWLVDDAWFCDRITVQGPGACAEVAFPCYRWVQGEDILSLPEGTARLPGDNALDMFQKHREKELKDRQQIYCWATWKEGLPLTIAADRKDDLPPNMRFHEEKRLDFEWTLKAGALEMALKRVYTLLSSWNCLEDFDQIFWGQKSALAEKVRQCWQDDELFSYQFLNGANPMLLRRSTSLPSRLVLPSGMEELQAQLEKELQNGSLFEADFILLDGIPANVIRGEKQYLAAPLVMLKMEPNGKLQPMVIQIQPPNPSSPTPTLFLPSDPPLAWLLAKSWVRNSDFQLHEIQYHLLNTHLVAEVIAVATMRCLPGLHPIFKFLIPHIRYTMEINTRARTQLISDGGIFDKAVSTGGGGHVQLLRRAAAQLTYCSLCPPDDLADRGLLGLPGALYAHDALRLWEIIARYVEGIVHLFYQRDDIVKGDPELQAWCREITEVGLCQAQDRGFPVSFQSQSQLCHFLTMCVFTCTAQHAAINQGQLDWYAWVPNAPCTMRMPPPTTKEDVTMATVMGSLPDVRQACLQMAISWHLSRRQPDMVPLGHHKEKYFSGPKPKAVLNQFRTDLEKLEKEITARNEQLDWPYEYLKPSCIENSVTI
Protocol: as §3

[11] = biological target: h15-LOX-1 (Homo sapiens (Human), UniProt P16050); test: Lipoxygenase UV-Vis-based assay, h15-LOX-1 selectivity
Chain of h15-LOX-1 (P16050 whole entry): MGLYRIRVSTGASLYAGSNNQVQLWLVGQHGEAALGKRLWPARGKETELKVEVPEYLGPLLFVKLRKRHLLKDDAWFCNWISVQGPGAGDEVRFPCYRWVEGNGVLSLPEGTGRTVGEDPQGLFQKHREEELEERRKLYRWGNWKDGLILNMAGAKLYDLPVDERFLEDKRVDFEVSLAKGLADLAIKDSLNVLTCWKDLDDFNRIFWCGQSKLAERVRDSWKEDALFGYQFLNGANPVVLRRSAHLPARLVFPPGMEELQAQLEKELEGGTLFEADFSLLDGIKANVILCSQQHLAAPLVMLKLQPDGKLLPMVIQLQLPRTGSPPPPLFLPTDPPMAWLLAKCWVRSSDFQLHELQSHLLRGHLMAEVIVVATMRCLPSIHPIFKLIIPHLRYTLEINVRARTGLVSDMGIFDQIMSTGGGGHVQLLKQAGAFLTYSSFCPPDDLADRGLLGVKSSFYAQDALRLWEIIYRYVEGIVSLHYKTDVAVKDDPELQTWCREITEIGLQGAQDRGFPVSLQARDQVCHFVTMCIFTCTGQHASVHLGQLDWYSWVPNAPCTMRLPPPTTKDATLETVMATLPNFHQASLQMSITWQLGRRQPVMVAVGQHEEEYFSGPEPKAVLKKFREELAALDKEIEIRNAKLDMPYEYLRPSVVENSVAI
Protocol: as §3

[12] = read-out: IC50 (μM) (± SD), h15-LOX-2 SAR study, 10 μM AA, 0.01% TritonX-100
[13] = read-out: IC50 (μM) (± SD (μM)), h15-LOX-2, 10 μM AA, duplicate
[14] = equilibrium constant of dissociation from the catalytic site, Dixon replot, 0.01% Triton X-100, read-out: Kic
[15] = read-out: h15-LOX-2 IC50, experimental values repeated in docking table
[16] = read-out: h15-LOX-2 IC50, full IC50 experiment, 10 μM AA, duplicate

| Structure (SMILES) | inhibition at 20 µM [1] | IC50 [1, 12] | other results |
| --- | --- | --- | --- |
| Brc1ccc(CSc2nccn2-c2ccccc2)cc1 [Compound 106] |  |  | IC50 [2]: > 100 µM; IC50 [3]: > 100 µM; IC50 [9]: > 100 µM; IC50 [10]: > 100 µM; IC50 [11]: > 50 µM |
| CCc1ccc(CSc2nccn2-c2ccccc2)cc1 [Compound 107] | 98% | 0.87 µM | IC50 [2]: > 100 µM; IC50 [3]: > 100 µM; Redox [4]: No; Ki [5, 14]: 0.9 µM; Ki ([5]; equilibrium constant of dissociation from the secondary site, Dixon replot, 0.01% Triton X-100, read-out: Kiu): 3.4 µM; substrate activity with h15-LOX-2 [6]: not substrates; EC50 [7]: ~1 µM and 1.3 µM; IC50 [1, 13]: 0.87 µM; IC50 [1, 15]: 0.87 µM; IC50 [1, 16]: 0.87 µM; IC50 [9]: > 100 µM; IC50 [10]: > 100 µM; IC50 [11]: > 50 µM |
| c1ccc(CCSc2nccn2-c2ccccc2)cc1 [Compound 110] | 68% | > 25 µM | potency against h15-LOX-2, SAR statement [1]: drastically decreased the potency |
| O=C(O)CCCSc1nccn1-c1ccccc1 [Compound 112] | 8% | > 100 µM |  |
| O=C(CSc1nccn1-c1ccccc1)c1ccc(Cl)cc1 [Compound 114] | 62% | > 25 µM |  |
| O=C(CSc1nccn1-c1ccccc1)NCc1ccc(F)cc1 [Compound 117] | 8% | > 100 µM |  |
| Cc1ccc(NC(=O)CSc2nccn2-c2ccccc2)cc1 [Compound 118] | 18% | > 50 µM |  |
| Cc1cc(C)cc(-n2ccnc2SCC(=O)O)c1 [Compound 120] | 7% | > 100 µM |  |
| Cc1cccc(-n2ccnc2SCC(=O)O)c1C [Compound 121] | 7% | > 100 µM |  |
| Cc1ccccc1-n1ccnc1SCC(=O)O [Compound 122] | 8% | > 100 µM |  |
| CC(C)c1ccc(-n2ccnc2SCC(=O)O)cc1 [Compound 123] | 13% | > 100 µM |  |
| Cc1ccc(-n2ccnc2SCC(=O)O)c(C)c1 [Compound 125] | 16% | > 50 µM |  |
| Cc1cccc(-n2ccnc2SCC(=O)Nc2cc(C(F)(F)F)ccc2Cl)c1 [Compound 127] | 13% | > 100 µM |  |

The next lines start with results.

| inhibition at 20 µM [1] | IC50 [1, 12] | Structure (SMILES) | other results |
| --- | --- | --- | --- |
| 97% | 0.27 µM | Cc1ccc(-n2ccnc2SCc2ccc(C(F)(F)F)cc2)cc1 [Compound 101, 1-(p-tolyl)-2-((4-(trifluoromethyl)benzyl)thio)-1H-imidazole] |  |
| 35% | > 100 µM | Fc1ccc(CSc2nccn2-c2ccccc2)cc1 [Compound 102, 2-((4-fluorobenzyl)thio)-1-phenyl-1H-imidazole] | IC50 [1, 13]: > 100 µM |
| 84% | 2.3 µM | CSc1ccc(CSc2nccn2-c2ccccc2)cc1 [Compound 103, 2-((4-(methylthio)benzyl)thio)-1-phenyl-1H-imidazole] | IC50 [1, 13]: 2.3 µM |
| 23% | > 100 µM | N#Cc1cc(CSc2nccn2-c2ccccc2)ccc1F [Compound 104, 2-fluoro-5-(((1-phenyl-1H-imidazol-2-yl)thio)methyl)benzonitrile] | potency against h15-LOX-2, SAR statement [1]: drastically decreased the potency |
| 100% | 0.34 µM | FC(F)(F)c1ccc(CSc2nccn2-c2ccccc2)cc1 [Compound 105] | IC50 [2]: > 100 µM; IC50 [3]: > 100 µM; Redox [4]: No; Ki ([5]; Dixon replot of slope versus [Inhibitor], unit given as M, read-out: Kic (FIG. 2 legend)): 0.8 µM; Ki [5, 14]: 0.7 µM; substrate activity with h15-LOX-2 [6]: not substrates; EC50 [7]: ~1 µM and 0.75 µM; average HDX rate constants of peptides 173-184 and 184-191 in presence of inhibitor ([8]; bi-exponential fits): 2—and 4-times slower; reduction in exchange of h15-LOX-2 peptides 173-184 and 184-191 ([8]; short time scales (<10 min), 25° C.): ≤ 20%; enhanced inhibition over inhibitor 536924 ([1]; ratio of h15-LOX-2 IC50 values): ~10 fold; IC50 [1, 13]: 0.34 µM; IC50 [1, 15]: 0.34 µM; IC50 [1, 16]: 0.34 µM; IC50 [9]: > 100 µM; IC50 [10]: > 100 µM; IC50 [11]: > 50 µM |
| 31% | > 50 µM | Cc1ccccc1CSc1nccn1-c1ccccc1 [Compound 108] | potency against h15-LOX-2, SAR statement [1]: drastically decreased the potency |
| 39% | > 50 µM | Clc1cccc(CSc2nccn2-c2ccccc2)c1 [Compound 109] | potency against h15-LOX-2, SAR statement [1]: drastically decreased the potency |
| 4% | > 100 µM | O=C(CSc1nccn1-c1ccccc1)NO [Compound 111] |  |
| 56% | > 25 µM | Cc1ccc(C(=O)CSc2nccn2-c2ccccc2)cc1 [Compound 113] |  |
| 51% | > 25 µM | O=C(CSc1nccn1-c1ccccc1)c1ccc(Br)cc1 [Compound 115] |  |
| 0% | > 100 µM | Cc1cc(C)cc(NC(=O)CSc2nccn2-c2ccccc2)c1 [Compound 116] |  |
| 4% | > 100 µM | Cc1ccc(C)c(-n2ccnc2SCC(=O)O)c1 [Compound 119] |  |
| 14% | > 100 µM | Cc1ccc(-n2ccnc2SCC(=O)O)cc1C [Compound 124] |  |
| 4% | > 100 µM | Cc1cccc(-n2ccnc2SCC(=O)Nc2ccccc2C(F)(F)F)c1 [Compound 126] |  |
